test system: MDA-MB-231; assay: Antiproliferative activity against human MDA-MB-231 cells assessed as inhibition of cell proliferation at 10 uM incubated for 72 hrs by MTT assay relative to control; type: functional; conditions: not given

Compound	inhibition at 10 µM [%]
COC(=O)c1ccc(CCCCn2cc(-c3ccc(Cn4cc(C)c(N)nc4=O)cc3)nn2)cc1	> 50

molecular target: Histone acetyltransferase p300 (Homo sapiens, UniProt Q09472); conditions: not given
Sequence (Q09472 whole entry): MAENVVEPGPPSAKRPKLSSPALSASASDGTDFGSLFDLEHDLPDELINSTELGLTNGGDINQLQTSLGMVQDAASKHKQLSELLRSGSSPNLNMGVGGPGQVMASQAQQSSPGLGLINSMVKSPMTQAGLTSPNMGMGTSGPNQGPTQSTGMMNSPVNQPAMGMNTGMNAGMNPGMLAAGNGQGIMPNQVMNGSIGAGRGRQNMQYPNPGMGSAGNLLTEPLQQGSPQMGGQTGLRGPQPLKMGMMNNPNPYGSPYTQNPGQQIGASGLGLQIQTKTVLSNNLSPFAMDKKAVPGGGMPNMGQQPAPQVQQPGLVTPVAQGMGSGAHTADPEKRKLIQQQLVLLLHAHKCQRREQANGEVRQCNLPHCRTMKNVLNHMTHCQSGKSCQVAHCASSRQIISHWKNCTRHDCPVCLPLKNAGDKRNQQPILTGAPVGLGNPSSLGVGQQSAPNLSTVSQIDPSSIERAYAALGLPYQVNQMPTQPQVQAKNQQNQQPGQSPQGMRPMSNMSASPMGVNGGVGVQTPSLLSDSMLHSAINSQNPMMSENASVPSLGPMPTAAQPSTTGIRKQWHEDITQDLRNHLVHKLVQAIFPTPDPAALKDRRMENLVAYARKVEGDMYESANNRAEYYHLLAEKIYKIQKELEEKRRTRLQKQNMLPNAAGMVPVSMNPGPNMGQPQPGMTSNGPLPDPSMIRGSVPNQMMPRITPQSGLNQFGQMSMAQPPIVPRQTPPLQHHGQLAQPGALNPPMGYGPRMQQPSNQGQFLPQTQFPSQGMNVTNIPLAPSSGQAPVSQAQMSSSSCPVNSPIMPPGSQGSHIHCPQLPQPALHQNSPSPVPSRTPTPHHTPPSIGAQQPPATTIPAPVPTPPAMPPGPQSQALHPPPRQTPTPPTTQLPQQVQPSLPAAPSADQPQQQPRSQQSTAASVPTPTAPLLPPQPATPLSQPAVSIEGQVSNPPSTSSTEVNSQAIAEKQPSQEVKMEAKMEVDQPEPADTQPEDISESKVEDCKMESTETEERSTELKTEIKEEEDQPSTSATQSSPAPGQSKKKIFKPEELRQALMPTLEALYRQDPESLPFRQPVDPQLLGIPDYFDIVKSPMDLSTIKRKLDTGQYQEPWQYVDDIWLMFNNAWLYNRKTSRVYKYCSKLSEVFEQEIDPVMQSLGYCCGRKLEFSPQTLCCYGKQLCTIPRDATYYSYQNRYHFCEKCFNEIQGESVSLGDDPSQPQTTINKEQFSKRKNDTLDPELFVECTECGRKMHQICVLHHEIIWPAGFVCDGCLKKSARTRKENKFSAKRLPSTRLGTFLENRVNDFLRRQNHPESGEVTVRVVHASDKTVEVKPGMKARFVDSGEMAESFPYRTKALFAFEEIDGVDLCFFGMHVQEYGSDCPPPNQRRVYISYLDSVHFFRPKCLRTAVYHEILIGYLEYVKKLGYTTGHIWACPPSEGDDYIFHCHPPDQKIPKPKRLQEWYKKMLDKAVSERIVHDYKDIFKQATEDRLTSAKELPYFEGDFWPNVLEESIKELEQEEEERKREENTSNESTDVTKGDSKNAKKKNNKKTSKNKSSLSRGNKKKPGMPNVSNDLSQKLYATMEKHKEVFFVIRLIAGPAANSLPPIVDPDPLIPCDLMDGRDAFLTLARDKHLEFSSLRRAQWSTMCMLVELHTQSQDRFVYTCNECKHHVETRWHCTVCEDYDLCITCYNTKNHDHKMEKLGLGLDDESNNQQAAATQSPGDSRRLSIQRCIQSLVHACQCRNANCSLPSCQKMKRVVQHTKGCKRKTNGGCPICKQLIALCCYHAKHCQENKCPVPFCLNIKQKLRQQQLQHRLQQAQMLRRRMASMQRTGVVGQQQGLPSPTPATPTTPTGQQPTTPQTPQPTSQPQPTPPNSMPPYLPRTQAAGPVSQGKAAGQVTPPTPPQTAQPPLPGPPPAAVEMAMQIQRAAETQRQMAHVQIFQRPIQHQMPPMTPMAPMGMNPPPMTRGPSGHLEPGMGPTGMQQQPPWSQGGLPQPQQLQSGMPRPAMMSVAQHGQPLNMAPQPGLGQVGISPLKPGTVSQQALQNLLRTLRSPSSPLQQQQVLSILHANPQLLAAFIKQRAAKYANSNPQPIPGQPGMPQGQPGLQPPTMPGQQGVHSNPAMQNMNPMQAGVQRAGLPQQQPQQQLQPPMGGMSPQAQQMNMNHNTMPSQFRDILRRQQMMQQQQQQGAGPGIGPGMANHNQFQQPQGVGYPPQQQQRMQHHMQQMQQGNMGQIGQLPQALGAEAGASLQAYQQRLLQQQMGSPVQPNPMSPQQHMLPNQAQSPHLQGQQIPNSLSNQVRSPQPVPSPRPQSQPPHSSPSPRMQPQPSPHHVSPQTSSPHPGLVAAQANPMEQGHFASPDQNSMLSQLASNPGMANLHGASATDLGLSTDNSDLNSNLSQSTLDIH

Compound	IC50 [nM]
COC(=O)c1ccc(CCCCn2cc(-c3ccc(Cn4cc(F)c(N)nc4=O)cc3)nn2)cc1	370
CCOC(=O)CCCCCn1cc(Cn2cc(F)c(N)nc2=O)nn1	800
Nc1ccn(Cc2cn(CCCCc3ccc(C(=O)O)cc3)nn2)c(=O)n1	4570
CCOC(=O)CCCCCCn1cc(-c2ccc(Cn3cnc(N)nc3=O)cc2)nn1	650
CCOC(=O)CCCCCCn1cc(-c2ccc(Cn3cnc4c(N)ncnc43)cc2)nn1	9900
CCOC(=O)CCCn1cc(-c2ccc(Cn3ccc(N)nc3=O)cc2)nn1	360
COC(=O)c1ccc(CCCCn2cc(-c3ccc(Cn4cnc(N)nc4=O)cc3)nn2)cc1	360
Nc1ccn(Cc2ccc(-c3cn(CCCCc4ccc(C(=O)O)cc4)nn3)cc2)c(=O)n1	1140
CCOC(=O)CCCCn1cc(-c2ccc(Cn3cnc(N)nc3=O)cc2)nn1	880
CCOC(=O)CCCCCn1cc(Cn2cc(C)c(N)nc2=O)nn1	1100
CCOC(=O)CCCCCCn1cc(-c2ccc(Cn3ccc(=O)[nH]c3=O)cc2)nn1	2000
CCOC(=O)CCCCn1cc(Cn2cnc(N)nc2=O)nn1	7690
Nc1nc(=O)n(Cc2ccc(-c3cn(CCCCc4ccc(C(=O)O)cc4)nn3)cc2)cc1F	250
CCOC(=O)CCCCCCn1cc(-c2ccc(Cn3cc(F)c(N)nc3=O)cc2)nn1	2600
Nc1ccn(Cc2ccc(-c3cn(CCCCC(=O)O)nn3)cc2)c(=O)n1	240
Nc1ccn(Cc2ccc(-c3cn(CCCC(=O)O)nn3)cc2)c(=O)n1	560
CCOC(=O)CCCn1cc(-c2ccc(Cn3cnc(N)nc3=O)cc2)nn1	4590
COC(=O)c1ccc(CCCCn2cc(-c3ccc(Cn4ccc(N)nc4=O)cc3)nn2)cc1	180
Nc1ccn(Cc2ccc(-c3cn(CCCCCC(=O)O)nn3)cc2)c(=O)n1	4120
CCOC(=O)CCCCCCn1cc(-c2ccc(Cn3cc(C)c(N)nc3=O)cc2)nn1	770
CCOC(=O)CCCCCn1cc(Cn2ccc(N)nc2=O)nn1	7800
CCOC(=O)CCCCCn1cc(-c2ccc(Cn3cnc(N)nc3=O)cc2)nn1	530
CCOC(=O)CCCCn1cc(-c2ccc(Cn3ccc(N)nc3=O)cc2)nn1	560
CCOC(=O)CCCCCCn1cc(-c2ccc(Cn3ccc(N)nc3=O)cc2)nn1	640
CCOC(=O)CCCCCn1cc(Cn2cnc(N)nc2=O)nn1	480
Nc1ccn(Cc2ccc(-c3cn(CCCCCCC(=O)O)nn3)cc2)c(=O)n1	960
CCOC(=O)CCCCCCn1cc(Cn2cnc(N)nc2=O)nn1	430
COC(=O)c1ccc(CCCCn2cc(-c3ccc(Cn4cc(C)c(N)nc4=O)cc3)nn2)cc1	240
CCOC(=O)CCCCCn1cc(-c2ccc(Cn3ccc(N)nc3=O)cc2)nn1	600

test system: NCI-H520; assay: Antiproliferative activity against human NCI-H520 cells assessed as inhibition of cell growth incubated for 72 hrs by MTT assay; type: functional, cell-based; conditions: NCI-H520, 72 h

Compound	IC50 [nM]
COC(=O)c1ccc(CCCCn2cc(-c3ccc(Cn4cc(F)c(N)nc4=O)cc3)nn2)cc1	23200
COC(=O)c1ccc(CCCCn2cc(-c3ccc(Cn4ccc(N)nc4=O)cc3)nn2)cc1	12200
